{
  "source": "patent US5693330A",
  "about": "“Skin care compositions containing melinamide and a retinoid” (priority 1996, dated 1997)",
  "tested_on": "Human keratinocytes",
  "assay": "3H-thymidine incorporation by cultured keratinocytes (keratinocyte proliferation)",
  "assay_type": "cell-based",
  "details": "for effect on keratinocyte proliferation (summary): Examples 1-3; for activity at 0.25 µM / activation at 0.25 µM / activation at 0.025 µM / activity at 0.025 µM / activity at 0.1 µM: Homo sapiens, Keratinocyte; for activity at 0.25 µM / activity at 0.025 µM / activity at 0.1 µM: read-out: mean Thymidine incorp/μg protein (% control)",
  "description": "Human keratinocytes, isolated from neonatal foreskin by trypsin treatment were grown in Dulbecco Modification Eagle (DME) Hams F12 (1:1) medium/10% fetal calf serum in the presence of irradiated 3T3 mouse fibroblasts for establishing dividing keratinocyte colonies. Cells were grown under the above condition until their second passage and kept frozen for future use. Frozen second passage keratinocytes were thawed and plated into the above medium and grown for five days before they were switched to a serum-free MCDB 153-based medium keratinocyte growth medium (KGM) from Clonetics Corporation, San Diego, Calif., containing 0.15 mM Ca, or keratinocyte serum-free media (KSFM) from GIBCO containing 0.09 mM Ca). On day 7, when the cells were 80-90% confluent, they were trypsinized and plated in the serum-free medium for the various experiments.\nThe incorporation of ^3 H-thymidine by cultured keratinocytes was used as an assay of keratinocyte proliferation. Thymidine is one of four deoxynucleosides which are the monomeric units of DNA, the universal library of genetic information in the animal kingdom. Prior to cell division of a somatic cell such as a keratinocyte, the complete genome of the cell undergoing cell division is replicated. This involves large scale DNA synthesis by the cell and enables both daughter cells to receive identical copies of the genetic material. When ^3 H-thymidine is included in the culture media of keratinocytes which are synthesizing DNA in preparation for cell division then the labelled nucleoside is incorporated into the newly synthesized DNA. The extent of incorporation of ^3 H-thymidine into a population of cells is proportional to the rate of DNA synthesis by this population of cells and therefore an indication of their cellular proliferation.\nKeratinocytes (that were cultured as described above) were plated in 24 well plates at a density of 40,000 cells per well in 1 ml media. After incubation for four days or until the cells were 60-70% confluent, the media was changed. Test compounds were added (in triplicate) to the wells 24 hours after the media change, and four hours later 1 μCl ^3 H-Thymidine in 50 μl media was added per well. Cells were incubated for a further 24 hours. Media was removed from the cells, 10% ice cold trichloroacetic acid (TCA) added and plates were incubated on ice for 30 minutes. Cells were washed five times with 5% TCA and allowed to dissolve in 500 μl […] NaOH for at least one hour (usually overnight). The preparations were neutralized with 0.1M HCl; 50 μl of the cell preparation was used to determine total protein content. Disintegrations per minute (DPM) from ^3 H labelling of DNA was determined by liquid scintillation counting of […] of the cell preparation. Thymidine incorporation results were expressed as DPM/μg protein.\nA. The effect on incorporation of ^3 H-thymidine μg soluble protein 24 hours after the addition of retinoic acid or retinol at various concentrations was examined.\nThe effect on incorporation of ^3 H-thymidine/μg soluble protein 24 hours after addition of the test compounds was examined and the combined results of three independent experiments were normalized to their respective ethanol controls.\nThe effect of melinamide and the retinyl ester (retinyl palmitate) on incorporation of ^3 H-thymidine was examined.",
  "key": {"[1]": {"details": "Example 2, 2.5 × 10^-8 M, n = 3, 24 hours, three experiments normalized to ethanol controls"}, "[2]": {"details": "read-out: increase in keratinocyte thymidine incorporation over the ethanol control"}},
  "note": "Where two headings read alike, the source gives them in different places.",
  "data": [
    {"smiles": "CC1=C(/C=C/C(C)=C/C=C/C(C)=C/C(=O)O)C(C)(C)CCC1", "note": "[RA, Retinoic acid]", "values": [
      {"measurement": "keratinocyte proliferation over both the ethanol control and each of the retinol treatments", "setting": "Example 1, 2.5×10^-7 M, 2.5×10^-8 and 2.5×10^-9 M", "result": "significantly increased keratinocyte proliferation"},
      {"measurement": "mean Thymidine incorp/μg protein ± s.d", "setting": "[1]", "result": "6711 ± 402", "unit": "DPM/μg protein"},
      {"measurement": "mean Thymidine incorp/μg protein ± s.d", "setting": "Example 3, 2.5 × 10^-7 M", "result": "7795 ± 370", "unit": "DPM/μg protein"},
      {"measurement": "effect on keratinocyte proliferation (summary)", "result": "increased keratinocyte proliferation"},
      {"measurement": "activity at 0.25 µM", "setting": "24 h, Example 3, 2.5 × 10^-7 M", "result": 142, "unit": "%"},
      {"measurement": "activation at 0.25 µM", "setting": "read-out: increase in keratinocyte thymidine incorporation over the 2.5×10^-7 M retinyl palmitate treatment", "result": 38, "unit": "%"},
      {"measurement": "activation at 0.025 µM", "setting": "read-out: increase in keratinocyte thymidine incorporation over the 2.5×10^-8 M retinol treatment", "result": 30, "unit": "%"},
      {"measurement": "activation at 0.025 µM", "setting": "[2]", "result": 30, "unit": "%"},
      {"measurement": "activation at 0.25 µM", "setting": "[2]", "result": 38, "unit": "%"},
      {"measurement": "activity at 0.025 µM", "setting": "Example 2, 2.5 × 10^-8 M, n = 3, 24 hours", "result": 130, "unit": "%"}
    ]},
    {"smiles": "CCCCCCCCCCCCCCCC(=O)OC/C=C(C)/C=C/C=C(C)/C=C/C1=C(C)CCCC1(C)C", "note": "[Retinyl palmitate, retinyl palmitate]", "values": [
      {"measurement": "mean Thymidine incorp/μg protein ± s.d", "setting": "Example 3, 2.5 × 10^-7 M", "result": "5746 ± 113", "unit": "DPM/μg protein"},
      {"measurement": "activity at 0.25 µM", "setting": "24 h, Example 3, 2.5 × 10^-7 M", "result": 104, "unit": "%"}
    ]},
    {"smiles": "CCCCC/C=C\\C/C=C\\CCCCCCCC(=O)NC(C)c1ccccc1", "note": "(stereo not shown) [Melinamide, melinamide]", "values": [
      {"measurement": "effect on keratinocyte proliferation on its own", "setting": "Example 2, 10^-7 M", "result": "no effect"},
      {"measurement": "mean Thymidine incorp/μg protein ± s.d", "setting": "Example 2, 10^-7 M, n = 3, 24 hours, three experiments normalized to ethanol controls", "result": "4695 ± 324", "unit": "DPM/μg protein"},
      {"measurement": "effect on keratinocyte proliferation on its own", "setting": "Example 3, 10^-7 M", "result": "no effect"},
      {"measurement": "mean Thymidine incorp/μg protein ± s.d", "setting": "Example 3, 10^-7 M", "result": "4635 ± 608", "unit": "DPM/μg protein"},
      {"measurement": "effect on keratinocyte proliferation (summary)", "result": "little or no benefit on its own"},
      {"measurement": "activity at 0.1 µM", "setting": "24 h, Example 2, 10^-7 M, n = 3, 24 hours", "result": 91, "unit": "%"},
      {"measurement": "activity at 0.1 µM", "setting": "24 h, Example 3, 10^-7 M", "result": 84, "unit": "%"}
    ]},
    {"smiles": "CC1=C(/C=C/C(C)=C/C=C/C(C)=C/CO)C(C)(C)CCC1", "note": "[ROH, Retinol]", "values": [
      {"measurement": "mean Thymidine incorp/μg protein ± s.d", "setting": "[1]", "result": "3956 ± 1303", "unit": "DPM/μg protein"},
      {"measurement": "effect on keratinocyte proliferation (summary)", "result": "completely ineffective at increasing keratinocyte proliferation"},
      {"measurement": "activity at 0.025 µM", "setting": "24 h, Example 2, 2.5 × 10^-8 M, n = 3, 24 hours", "result": 76, "unit": "%"}
    ]}
  ]
}
